Patent publication US20210353751A1, “COMBINATION THERAPIES FOR TREATMENT OF INFLAMMATORY DISEASES” (The Regents of The University of California, priority 2018, published 2021)
Like-named read-outs stand apart in the source and are kept apart here.

Experiments:
GABA-R = details: relative to GABA; cited from earlier work
[1] = tested on: newly severely hyperglycemic NOD mice; assay: Combined GABA-R agonist and low-dose anti-CD3 treatment in severely hyperglycemic NOD mice (remission/relapse); type: in vivo; details: homotaurine alone 0.25 mg/ml; severe hyperglycemia at entry
Experimental: The inventors hypothesized that combining GABA-Receptor activation with an immunosuppressant may allow effective disease reversal using lower dosages of the immunosuppressant and thereby reduce the possibility of side effects. The inventors chose to test anti-CD3 since it is a prototypic immunosuppressant that is in clinical use. In pilot studies, the inventors developed a low-dose anti-CD3 treatment protocol (35 μg anti-CD3 on three consecutive days), which reversed hyperglycemia in about a third of newly-diabetic NOD mice with severe hyperglycemia at entry into the study (blood glucose >350 mg/dL). The inventors then treated newly severely hyperglycemic NOD mice with low-dose anti-CD3 together with homotaurine (0.25 mg/ml), GABA (6 mg/ml), or plain water.
For these studies, the inventors initiated treatment when the NOD mice had blood glucose levels >350 mg/dL. […] Treated mice with two consecutive blood glucose readings below 250 mg/dL were considered to be in remission after which two consecutive blood glucose readings >250 mg/dL was considered to be disease relapse […]
Treatment was initiated when the NOD mice had blood glucose levels >350 mg/dL. […] Treated mice with two consecutive blood glucose readings below 250 mg/dL were considered to be in remission after which two consecutive blood glucose readings >250 mg/dL was considered to be disease relapse.

Newly-diabetic NOD mice [2] = assay: Homotaurine monotherapy dose-finding study in newly-diabetic NOD mice; type: in vivo
Experimental: To determine whether homotaurine had therapeutic potential in NOD mice, the inventors performed a dose finding study with homotaurine dissolved in the drinking water at 0, 0.08, 0.25 or 0.75 mg/ml. […] Newly-diabetic NOD mice that were untreated rapidly progressed to severe hyperglycemia within 1 week. […] Thus, oral homotaurine monotherapy at an appropriate dose can quickly correct hyperglycemia and maintain normoglycemia for a short period, but most of the treated mice become hyperglycemic again.
A dose finding study was performed with homotaurine dissolved in the drinking water at 0, 0.08, 0.25 or 0.75 mg/ml to determine the therapeutic potential in NOD mice. […] Newly-diabetic NOD mice that were untreated rapidly progressed to severe hyperglycemia within 1 week. […] Thus, oral homotaurine monotherapy at an appropriate dose can quickly correct hyperglycemia but most of the treated mice become hyperglycemic again within a short period.
NOD mice (Taconic Farms, Germantown) were housed in a specific pathogen-free facility. Only female NOD mice were used.
Blood glucose levels were monitored 2-3 times weekly using a One Touch Ultrasensitive monitor and those with two consecutive daily blood glucose levels between 250-300 mg/dL were entered into the study. The mice were randomly assigned to groups that continually received water containing 0, 0.08, 0.25, or 0.75 mg/ml homotaurine, pH 7.2 through their drinking water. Each mouse consumed on average about 4-5 ml of water per day. Water bottles were changed every five days. Treated mice with two consecutive blood glucose readings below 250 mg/dL were considered to be in remission after which two consecutive blood glucose readings >250 mg/dL was considered disease relapse.

[3] = after intravenous or intraperitoneal injection; cited from earlier work
[4] = tested on: PLN mononuclear cells of NOD mice; assay: Pancreatic lymph node (PLN) mononuclear cell analysis; type: in vivo; details: treated at 15-18 weeks in age, studied 3 weeks later; monotherapies relative to control, combination relative to monotherapies
Text: This increase was significant for CD4^+CD25^+Foxp3^+ cells in comparison to homotaurine monotherapy. Thus, combined therapy also elevated the average frequencies of CD4^+ and CD8^+ Tregs within the target tissue/PLN of NOD mice

[5] = tested on: splenic Tregs of SJL mice; details: homotaurine monotherapy, EAE model; cited from earlier work
Newly-diabetic NOD mice [6] = details: oral GABA at 20 mg/ml, monotherapy; cited from earlier work
Newly-diabetic NOD mice [7] = assay: Anti-CD3 plus GABA in newly-diabetic NOD mice: glycemia and islet staining (insulin/glucagon) after three months; type: in vivo
Experimental: Newly-diabetic NOD mice (blood glucose 220-300 mg/dL on two consecutive days) were treated with anti-CD3 (non-Fc binding anti-CD3ε F(ab′)2 from BioExpress, 40 μg/day intravenously for 5 consecutive days) and immediately began one of the following additional treatments: • (1) control PBS IP; • (2) GABA (dissolved in PBS, 250 μg/kg, IP); • (3) control plain drinking water; or • (4a) drinking water containing 6 mg/ml GABA or (4b) drinking water containing 20 mg/ml GABA. Mice drink approximately 4 ml/day, so Group 4a consumed approximately 24 mg/day of GABA and Group 4b consumed approximately 80 mg/day of GABA.
Three months after beginning treatment, pancreata from the mice were removed and sections (4 μm) were stained with Alexa Fluor 647-anti-glucagon (shown in red in the Figures) and Alexa-488 conjugated with anti-insulin (shown in green in the Figures), followed by staining with 4′,6-diamidino-2-phenylindole (“DAPI”). Images were captured using a fluorescent microscope and at least 30 islets from each group of mice (n=4) were analyzed. Data are representative islet images or expressed as the mean±standard deviation (“SD”) of each group.

[8] = homotaurine 0.08 mg/ml in drinking water
[9] = homotaurine 0.25 mg/ml in drinking water

| Compound | affinity for GABA-R, higher than GABA (GABA-R) [fold] | induction of remission [1] | water or food consumption or body weights over the course of the study (Newly-diabetic NOD mice [2]; homotaurine 0, 0.08, 0.25 or 0.75 mg/ml in drinking water) | delay of disease progression (mean) (Newly-diabetic NOD mice [2]; [8]) [weeks] | effect on disease progression (Newly-diabetic NOD mice [2]; [8]) | restoration of normoglycemia (Newly-diabetic NOD mice [2]; [9]) | time at which most mice became hyperglycemic again (Newly-diabetic NOD mice [2]; [9]) [weeks] | effect on disease progression (Newly-diabetic NOD mice [2]; homotaurine 0.75 mg/ml in drinking water, on average less effective than 0.25 mg/ml) | mean remission period for all mice (Newly-diabetic NOD mice [2]; homotaurine monotherapy 0.25 mg/ml in drinking water) [weeks] | half-life in plasma compared with GABA [3] | frequency of CD4+CD25+Foxp3+ cells in the PLN [4] | frequency of CD8+CD122+PD-1+ cells in the PLN [4] | frequency of splenic CD4+Foxp3+ Tregs [5] | frequency of splenic CD8+CD122+PD-1+ Tregs [5] | restoration of normoglycemia (Newly-diabetic NOD mice [6]) | time at which mice became hyperglycemic again (Newly-diabetic NOD mice [6]) | half-life in plasma [3] [min] | numbers of bihormonal cells versus groups treated with lower dosages of GABA (Newly-diabetic NOD mice [7]; GABA 20 mg/ml in drinking water with anti-CD3) | frequency of bihormonal glucagon+ insulin+ cells versus control groups (Newly-diabetic NOD mice [7]; all GABA-treated groups (250 μg/kg IP, 6 or 20 mg/ml in water), all with anti-CD3) | increase in the frequency of insulin+ cells per islet relative to control groups who received anti-CD3 alone (Newly-diabetic NOD mice [7]; highest GABA dose (20 mg/ml in drinking water) with anti-CD3) [fold] |
| --- | --- | --- | --- | --- | --- | --- | --- | --- | --- | --- | --- | --- | --- | --- | --- | --- | --- | --- | --- | --- |
| NCCCS(=O)(=O)O [homotaurine] | > 3 | unable to induce remission | None of the mouse groups under study differed | 2.2 | delayed disease progression for a very brief period | restored normoglycemia in all mice | ≤ 6 | some delay in disease progression | 14 | longer half-life than GABA | significantly increased | significantly increased | increased the frequency | increased the frequency | – | – | – | – | – | – |
| NCCCC(=O)O [GABA, γ-aminobutyric acid] | – | – | – | – | – | – | – | – | – | – | – | – | – | – | restored normoglycemia in all mice | generally within five weeks | 20 | greater numbers of bihormonal cells | significantly increased | 26 |
